The test system of one assay is MOLM13 cells (FLT3-ITD). Nature of the assay: Growth inhibition IC50 in FLT3-ITD AML cell line MOLM13. The assay is classed as cell-based. The following applies: Homo sapiens, MOLM-13, read-out: Half Inhibitory Concentration (IC50) Mean.
Assay [1] relates to U118MG cells (FIG-ROS1 gene fusion). Nature of the assay: Growth inhibition IC50 in ROS1 mutant glioblastoma cell line U118MG (72 hours). The assay is classed as cell-based. The following applies: Homo sapiens, U-118-MG, 72 h, read-out: Half Inhibitory Concentration (IC50) Mean.
Assay [2] relates to NCI-H3122 (EML4-ALK, V1) cells. The assay can be described thus: Growth inhibition IC50 in lung cancer H3122 cells (Cell Titer Blue / Cell Titer Glo). The following applies: Homo sapiens, NCI-H3122, H3122 cells. (In general: The colour change of resazurin is a common sign of viable cells or microbes.)
Description: (§1) SR (NPM-ALK) and NCI-H2228 (EML4-ALK, V3) cells were purchased from ATCC. […] All Cells were cultured in RPMI1640 medium with 10% FBS and Penicillin-Streptomycin in 37° C. incubator with 5% CO2.
(§2) Cells were seeded at specific density in 96 well plates one day before treatment. […] Viable cells were measured via CCK8 reagent and IC50s were calculated via Prism Graphad. Experiments were repeated at least three times.
The target in assay [3] is T1, ALK protein in H3122 (EML4-ALK) cells (Homo sapiens, UniProt Q9UM73).
T1 construct: EML4 (Echinoderm microtubule-associated protein-like 4, Q9HC35) fusion partner, variant 1; host or cells: NCI-H3122 lung adenocarcinoma cells; the other entry of the earlier key: EML4 (Q9HC35, Echinoderm microtubule-associated protein-like 4)
T1 sequence (Q9UM73 with tags, fused parts or gaps): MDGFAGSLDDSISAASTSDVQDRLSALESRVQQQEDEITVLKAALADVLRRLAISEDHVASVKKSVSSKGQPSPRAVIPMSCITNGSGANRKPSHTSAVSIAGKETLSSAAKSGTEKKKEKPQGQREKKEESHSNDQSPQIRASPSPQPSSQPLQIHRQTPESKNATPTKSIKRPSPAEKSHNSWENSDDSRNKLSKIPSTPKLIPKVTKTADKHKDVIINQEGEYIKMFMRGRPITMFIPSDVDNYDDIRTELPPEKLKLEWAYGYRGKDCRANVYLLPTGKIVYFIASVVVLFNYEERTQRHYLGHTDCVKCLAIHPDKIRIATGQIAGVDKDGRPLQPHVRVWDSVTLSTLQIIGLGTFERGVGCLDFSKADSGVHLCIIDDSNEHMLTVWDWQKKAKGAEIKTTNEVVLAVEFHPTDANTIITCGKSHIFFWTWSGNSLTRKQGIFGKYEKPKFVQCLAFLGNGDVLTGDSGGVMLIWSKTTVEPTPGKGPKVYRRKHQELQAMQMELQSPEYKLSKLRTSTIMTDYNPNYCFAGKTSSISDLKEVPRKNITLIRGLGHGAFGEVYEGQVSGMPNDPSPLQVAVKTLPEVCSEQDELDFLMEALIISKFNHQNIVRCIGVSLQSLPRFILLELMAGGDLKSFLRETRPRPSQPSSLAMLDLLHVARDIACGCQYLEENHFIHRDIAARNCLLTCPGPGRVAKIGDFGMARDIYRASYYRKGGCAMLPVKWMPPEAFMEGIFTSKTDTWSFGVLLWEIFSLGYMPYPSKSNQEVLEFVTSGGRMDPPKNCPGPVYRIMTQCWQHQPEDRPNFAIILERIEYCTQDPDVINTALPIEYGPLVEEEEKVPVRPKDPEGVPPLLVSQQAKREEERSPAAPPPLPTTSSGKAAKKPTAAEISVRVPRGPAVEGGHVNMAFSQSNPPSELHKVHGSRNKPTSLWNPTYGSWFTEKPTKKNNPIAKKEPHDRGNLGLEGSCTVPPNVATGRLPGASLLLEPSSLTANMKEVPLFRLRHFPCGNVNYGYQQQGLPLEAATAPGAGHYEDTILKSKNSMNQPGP
The assay can be described thus: Western blot of ALK protein level (degradation, DC50), ALK phosphorylation and downstream signaling in H3122 cells. In kind it is cell-based. The following applies: for DC50: ALK protein degradation in H3122 cells. (Immunoblotting shows a protein as a band on a membrane.)

The next assay deals with SR (NPM-ALK) cells. The assay can be described thus: Growth inhibition IC50 in ALCL SR cells (CCK8/WST, 72 hours). The assay is classed as cell-based. The following applies: SR cells, WST.
Assay [4] concerns PC9Brc1 (EGFR, exon 19 del+T790M) cells. Nature of the assay: Growth inhibition IC50 in EGFR mutant lung cancer PC9Brc1 cells. The assay is classed as cell-based. The following applies: CTB, n ≥ 3, read-out: Half Inhibitory Concentration (IC50) Mean.
Description: as §1, §2
Assay [5] has as its target T2, ALK protein in SR (NPM-ALK) cells (Homo sapiens, UniProt Q9UM73).
T2 construct: NPM (nucleophosmin, NPM1, P06748) fusion partner; host or cells: SR (ALCL) cells; the other entry of the earlier key: NPM1 (P06748, Nucleophosmin)
Nature of the assay: Western blot of ALK protein level (degradation, DC50), ALK phosphorylation and downstream signaling in SR cells. In kind it is cell-based. The following applies: ALK protein degradation in SR cells.
Description: Cancer cells were seeded in 1 ml RPMI1640 medium in 24-well plate at the density of 3×10^5 or 1.5×10^5 cells/ml. […] Then cells were washed twice with PBS and lyzed in RIPA lysis buffer with Halt Proteinase and Phosphotase inhibitor. Equal amount of proteins were loaded to run SDS-PAGE gels after denature. The gels were blotted to PVDF membrane. After incubating with first and secondary antibodies, the images were developed using SuperSignal West Pico Chemiluminescent Substrate.
DC50 (concentration required to degrade protein by half) were calculated based on the intensity from western blot, and data were analyzed via Prism GraphPad with non-linear regression.

Assay [6] has as its system PC9 (EGFR, exon 19 del) cells. Nature of the assay: Growth inhibition IC50 in EGFR mutant lung adenocarcinoma PC9 cells. The assay is classed as cell-based. The following applies: Homo sapiens, PC-9; PC9 cells, CTB, n ≥ 3; read-out: Half Inhibitory Concentration (IC50) Mean.
Description: as §1, §2
The mark [7] stands for this setting: Ceritinib based ALK PROTAD compounds (Table 5).

A word on the DC50: it is the midpoint of the concentration-degradation curve.

T2 sequence (Q9UM73 with tags, fused parts or gaps): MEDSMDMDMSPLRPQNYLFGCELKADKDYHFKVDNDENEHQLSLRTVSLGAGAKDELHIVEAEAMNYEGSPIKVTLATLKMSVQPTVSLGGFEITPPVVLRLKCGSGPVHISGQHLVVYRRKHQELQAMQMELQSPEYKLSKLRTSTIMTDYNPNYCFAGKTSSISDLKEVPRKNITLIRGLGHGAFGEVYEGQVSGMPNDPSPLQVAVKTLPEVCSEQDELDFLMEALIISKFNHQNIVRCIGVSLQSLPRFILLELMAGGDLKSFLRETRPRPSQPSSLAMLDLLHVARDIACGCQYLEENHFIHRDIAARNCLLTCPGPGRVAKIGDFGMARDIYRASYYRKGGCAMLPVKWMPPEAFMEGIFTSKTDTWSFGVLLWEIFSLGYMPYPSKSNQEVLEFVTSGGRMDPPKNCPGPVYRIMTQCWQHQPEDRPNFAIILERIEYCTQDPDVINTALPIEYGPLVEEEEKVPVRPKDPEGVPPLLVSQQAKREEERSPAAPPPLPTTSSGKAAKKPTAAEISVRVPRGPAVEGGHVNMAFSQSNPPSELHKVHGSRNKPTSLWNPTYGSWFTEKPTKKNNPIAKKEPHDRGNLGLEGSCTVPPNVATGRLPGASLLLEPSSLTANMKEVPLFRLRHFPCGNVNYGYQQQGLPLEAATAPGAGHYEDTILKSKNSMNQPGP

`C[C@@H](Oc1cc(-c2cnn(C3CCNCC3)c2)cnc1N)c1c(Cl)ccc(F)c1Cl` [Crizotinib, reference compound]: the IC50 with MOLM13 cells (FLT3-ITD) turned out to be 291 nM; in assay [1], 2570 nM.
The compound `Cc1cc(Nc2ncc(Cl)c(Nc3ccccc3S(=O)(=O)C(C)C)n2)c(OC(C)C)cc1C1CCN(C(=O)CCCC(=O)N[C@H](C(=O)N2C[C@H](O)C[C@H]2C(=O)NCc2ccc(-c3scnc3C)cc2)C(C)(C)C)CC1` [SIAIS074018, (2S,4R)-1-((S)-2-(5-(4-(4-((5-chloro-4-((2-(isopropylsulfonyl)phenyl)amino)pyrimidin-2-yl)amino)-5-isopropoxy-2-methylphenyl)piperidin-1-yl)-5-oxopentanamido)-3,3-dimethylbutanoyl)-4-hydroxy-N-(4-(4-methylthiazol-5-yl)benzyl)pyrrolidine-2-carboxamide] displayed an IC50 in assay [2] (CTB (Cell Titer Blue)) of 209 nM. Further, in assay [3], the half-maximal degradation concentration (DC50) fell in the range of 100 to 500 nM.
For the compound `Cc1cc(Nc2ncc(Cl)c(Nc3ccccc3S(=O)(=O)C(C)C)n2)c(OC(C)C)cc1C1CCN(C(=O)CCCCC(=O)N[C@H](C(=O)N2C[C@H](O)C[C@H]2C(=O)NCc2ccc(-c3scnc3C)cc2)C(C)(C)C)CC1` [SIAIS074021, (2S,4R)-1-((S)-2-(6-(4-(4-((5-chloro-4-((2-(isopropylsulfonyl)phenyl)amino)pyrimidin-2-yl)amino)-5-isopropoxy-2-methylphenyl)piperidin-1-yl)-6-oxohexanamido)-3,3-dimethylbutanoyl)-4-hydroxy-N-(4-(4-methylthiazol-5-yl)benzyl)pyrrolidine-2-carboxamide], the IC50 in assay [2] (CTB (Cell Titer Blue)) was 125 nM. In addition, the DC50 in assay [3] was 50 to 100 nM.
On the same counts, the results for `Cc1cc(Nc2ncc(Cl)c(Nc3ccccc3S(=O)(=O)C(C)C)n2)c(OC(C)C)cc1C1CCN(C(=O)CCCCCC(=O)N[C@H](C(=O)N2C[C@H](O)C[C@H]2C(=O)NCc2ccc(-c3scnc3C)cc2)C(C)(C)C)CC1` [SIAIS074022, (2S,4R)-1-((S)-2-(7-(4-(4-((5-chloro-4-((2-(isopropylsulfonyl)phenyl)amino)pyrimidin-2-yl)amino)-5-isopropoxy-2-methylphenyl)piperidin-1-yl)-7-oxoheptanamido)-3,3-dimethylbutanoyl)-4-hydroxy-N-(4-(4-methylthiazol-5-yl)benzyl)pyrrolidine-2-carboxamide] are 269 nM and 20 to 100 nM.
For the compound `Cc1cc(Nc2ncc(Cl)c(Nc3ccccc3S(=O)(=O)C(C)C)n2)c(OC(C)C)cc1C1CCN(C(=O)CCCCCCCC(=O)N[C@H](C(=O)N2C[C@H](O)C[C@H]2C(=O)NCc2ccc(-c3scnc3C)cc2)C(C)(C)C)CC1` [SIAIS074024, (2S,4R)-1-((S)-2-(9-(4-(4-((5-chloro-4-((2-(isopropylsulfonyl)phenyl)amino)pyrimidin-2-yl)amino)-5-isopropoxy-2-methylphenyl)piperidin-1-yl)-9-oxononanamido)-3,3-dimethylbutanoyl)-4-hydroxy-N-(4-(4-methylthiazol-5-yl)benzyl)pyrrolidine-2-carboxamide], the IC50 in assay [2] (CTB (Cell Titer Blue)) was 721 nM. In assay [3], this compound returned a DC50 of 10 to 50 nM. Further, the “concentration at which ALK protein level was reduced” value in assay [3] (H3122 cells, western blot) worked out at 50 nM.
Compound `Cc1cc(Nc2ncc(Cl)c(Nc3ccccc3S(=O)(=O)C(C)C)n2)c(OC(C)C)cc1C1CCN(C(=O)CCCCCCCCC(=O)N[C@H](C(=O)N2C[C@H](O)C[C@H]2C(=O)NCc2ccc(-c3scnc3C)cc2)C(C)(C)C)CC1` [SIAIS074025, (2S,4R)-1-((S)-2-(10-(4-(4-((5-chloro-4-((2-(isopropylsulfonyl)phenyl)amino)pyrimidin-2-yl)amino)-5-isopropoxy-2-methylphenyl)piperidin-1-yl)-10-oxodecanamido)-3,3-dimethylbutanoyl)-4-hydroxy-N-(4-(4-methylthiazol-5-yl)benzyl)pyrrolidine-2-carboxamide] had an IC50 in assay [2] (CTB (Cell Titer Blue)) of 1240 nM. In assay [3], the DC50 lay within 100 to 500 nM.
On to `Cc1cc(Nc2ncc(Cl)c(Nc3ccccc3S(=O)(=O)C(C)C)n2)c(OC(C)C)cc1C1CCN(C(=O)CCOCCOCCNc2cccc3c2C(=O)N(C2CCC(=O)NC2=O)C3=O)CC1` (stereo not drawn) [SIAIS151023, 4-((2-(2-(3-(4-(4-((5-chloro-4-((2-(isopropylsulfonyl)phenyl)amino)pyrimidin-2-yl)amino)-5-isopropoxy-2-methylphenyl)piperidin-1-yl)-3-oxopropoxy)ethoxy)ethyl)amino)-2-(2,6-dioxopiperidin-3-yl)isoindoline-1,3-dione], for which the IC50 was 15 nM in assay [2] (CTB (Cell Titer Blue)) and 76 nM in assay [2] (CTG (Cell Titer Glo)). For the same compound, in assay [3], the DC50 lay in the range of 10 to 100 nM.
For `Cc1cc(Nc2ncc(Cl)c(Nc3ccccc3S(=O)(=O)C(C)C)n2)c(OC(C)C)cc1C1CCN(C(=O)CCOCCOCCOCCNc2cccc3c2C(=O)N(C2CCC(=O)NC2=O)C3=O)CC1` (stereo not drawn) [SIAIS151028, 4-((2-(2-(2-(3-(4-(4-((5-chloro-4-((2-(isopropylsulfonyl)phenyl)amino)pyrimidin-2-yl)amino)-5-isopropoxy-2-methylphenyl)piperidin-1-yl)-3-oxopropoxy)ethoxy)ethoxy)ethyl)amino)-2-(2,6-dioxopiperidin-3-yl)isoindoline-1,3-dione], the IC50 was found to be 6 nM in assay [2] (CTB (Cell Titer Blue)), 80 nM in assay [2] (CTG (Cell Titer Glo)) and 38 nM with SR (NPM-ALK) cells (setting [7]). The compound also yielded a DC50 in assay [3] of 20 to 100 nM.
Take `Cc1cc(Nc2ncc(Cl)c(Nc3ccccc3S(=O)(=O)C(C)C)n2)c(OC(C)C)cc1C1CCN(C(=O)CCOCCOCCOCCOCCOCCNc2cccc3c2C(=O)N(C2CCC(=O)NC2=O)C3=O)CC1` (stereo not drawn) [SIAIS151029, 4-((18-(4-(4-((5-chloro-4-((2-(isopropylsulfonyl)phenyl)amino)pyrimidin-2-yl)amino)-5-isopropoxy-2-methylphenyl)piperidin-1-yl)-18-oxo-3,6,9,12,15-pentaoxaoctadecyl)amino)-2-(2,6-dioxopiperidin-3-yl)isoindoline-1,3-dione]: the figures for the IC50 in assay [2] (CTB (Cell Titer Blue)) and in assay [2] (CTG (Cell Titer Glo)) were 23 nM and 95 nM, respectively. The compound also gave a DC50 in assay [3] of 10 to 50 nM.
Regarding `Cc1cc(Nc2ncc(Cl)c(Nc3ccccc3S(=O)(=O)C(C)C)n2)c(OC(C)C)cc1C1CCN(C(=O)CCOCCNc2cccc3c2C(=O)N(C2CCC(=O)NC2=O)C3=O)CC1` (stereo not drawn) [SIAIS151031, 4-((2-(3-(4-(4-((5-chloro-4-((2-(isopropylsulfonyl)phenyl)amino)pyrimidin-2-yl)amino)-5-isopropoxy-2-methylphenyl)piperidin-1-yl)-3-oxopropoxy)ethyl)amino)-2-(2,6-dioxopiperidin-3-yl)isoindoline-1,3-dione], the IC50 in assay [2] (CTB (Cell Titer Blue)) was 7 nM; in assay [2] (CTG (Cell Titer Glo)) it was 81 nM; in the assay with SR (NPM-ALK) cells (setting [7]) it was 85 nM. Besides, the DC50 in assay [3] was in the range of 100 to 500 nM.
In turn, `Cc1cc(Nc2ncc(Cl)c(Nc3ccccc3S(=O)(=O)C(C)C)n2)c(OC(C)C)cc1C1CCN(C(=O)CCCNc2cccc3c2C(=O)N(C2CCC(=O)NC2=O)C3=O)CC1` (stereo not drawn) [SIAIS151035, 4-((4-(4-(4-((5-chloro-4-((2-(isopropylsulfonyl)phenyl)amino)pyrimidin-2-yl)amino)-5-isopropoxy-2-methylphenyl)piperidin-1-yl)-4-oxobutyl)amino)-2-(2,6-dioxopiperidin-3-yl)isoindoline-1,3-dione] yielded an IC50 in assay [2] (CTB (Cell Titer Blue)) of 33 nM. For the same compound, in assay [3], the 50% degradation concentration (DC50) lay in the range of 50 to 100 nM.
On the same counts, the results for `Cc1cc(Nc2ncc(Cl)c(Nc3ccccc3S(=O)(=O)C(C)C)n2)c(OC(C)C)cc1C1CCN(C(=O)CNc2cccc3c2C(=O)N(C2CCC(=O)NC2=O)C3=O)CC1` (stereo not drawn) [SIAIS151037, 4-((2-(4-(4-((5-chloro-4-((2-(isopropylsulfonyl)phenyl)amino)pyrimidin-2-yl)amino)-5-isopropoxy-2-methylphenyl)piperidin-1-yl)-2-oxoethyl)amino)-2-(2,6-dioxopiperidin-3-yl)isoindoline-1,3-dione] are 151 nM and 50 to 100 nM.
For `COc1cc(N2CCC(N3CCN(C(=O)CCOCCNc4cccc5c4C(=O)N(C4CCC(=O)NC4=O)C5=O)CC3)CC2)ccc1Nc1ncc(Cl)c(Nc2ccccc2P(C)(C)=O)n1` (stereo not drawn) [SIAIS164007, 4-((2-(3-(4-(1-(4-((5-chloro-4-((2-(dimethylphosphoryl)phenyl)amino)pyrimidin-2-yl)amino)-3-methoxyphenyl)piperidin-4-yl)piperazin-1-yl)-3-oxopropoxy)ethyl)amino)-2-(2,6-dioxopiperidin-3-yl)isoindoline-1,3-dione], the IC50 turned out to be 1610 nM in assay [4]; 3.8 ± 1.9 nM in the assay on SR (NPM-ALK) cells (72 h, Brigatinib-based PROTAD molecules (Table 3)); 358 nM in assay [6]. For the same compound, the half-maximal degradation concentration (DC50) fell in the range of 10 to 50 nM in assay [3] and 1 to 10 nM in assay [5].
